Each structure is given as a SMILES string.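 The compound was tested at five concentrations on cells cultured in 96-well plates, with a 48-hour exposure period. TGI marks complete inhibition of growth.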

The first test relates to HL-60(TB) leukemia. The test can be described thus: inhibition of tumour cell growth, NCI panel, 48 h.
Regarding `COc1cc(C2C(C(=O)O)=C(CO)Oc3cc4c(cc32)OCO4)cc(OC)c1O` (configuration not stated), the TGI was over 100 µM.
The same measure, in the same setting: the same measure for `O=C1[C@H]2ON(c3ccccc3)C(c3ccccc3Cl)[C@H]2C(=O)N1c1ccc(Cc2ccc(N3C(=O)[C@@H]4ON(c5ccccc5)C(c5ccccc5Cl)[C@@H]4C3=O)cc2)cc1` (some centres not stated): over 100 µM; for `COc1cc(Cn2c3ccccc3c3cc(C)c4c(c32)C=CC(C)(CCC=C(C)C)O4)cc2c1[nH]c1ccccc12` (configuration not stated): over 100 µM.

Another test concerns HOP-18 NSCLC. The test can be described thus: inhibition of tumour cell growth, NCI panel, 48 h.
`Cc1ccc(C(=O)c2nnc(C(=O)c3ccc(C)cc3)nn2)cc1` came in with a TGI of over 100 µM.
`COc1cc(C2C(C(=O)O)=C(CO)Oc3cc4c(cc32)OCO4)cc(OC)c1O` (configuration not stated): the TGI is over 100 µM.
The same measure, in the same setting: the same measure for `O=C1[C@H]2ON(c3ccccc3)C(c3ccccc3Cl)[C@H]2C(=O)N1c1ccc(Cc2ccc(N3C(=O)[C@@H]4ON(c5ccccc5)C(c5ccccc5Cl)[C@@H]4C3=O)cc2)cc1` (some centres not stated): over 100 µM; for `COc1cc(Cn2c3ccccc3c3cc(C)c4c(c32)C=CC(C)(CCC=C(C)C)O4)cc2c1[nH]c1ccccc12` (configuration not stated): over 100 µM.

The test system of the next test is HOP-62 NSCLC. The test can be described thus: inhibition of tumour cell growth, NCI panel, 48 h.
In turn, `Cc1ccc(C(=O)c2nnc(C(=O)c3ccc(C)cc3)nn2)cc1` yielded a TGI of over 100 µM.
Take `COc1cc(C2C(C(=O)O)=C(CO)Oc3cc4c(cc32)OCO4)cc(OC)c1O` (configuration not stated): the TGI was over 100 µM.
Consider `O=C1[C@H]2ON(c3ccccc3)C(c3ccccc3Cl)[C@H]2C(=O)N1c1ccc(Cc2ccc(N3C(=O)[C@@H]4ON(c5ccccc5)C(c5ccccc5Cl)[C@@H]4C3=O)cc2)cc1` (some centres not stated), for which the TGI is over 100 µM.
Same read-out and setting: the same measure for `COc1cc(Cn2c3ccccc3c3cc(C)c4c(c32)C=CC(C)(CCC=C(C)C)O4)cc2c1[nH]c1ccccc12` (configuration not stated): over 100 µM.

In the next test the test system is HOP-92 NSCLC. The test can be described thus: inhibition of tumour cell growth, NCI panel, 48 h.
`Cc1ccc(C(=O)c2nnc(C(=O)c3ccc(C)cc3)nn2)cc1` registered a TGI of over 100 µM.
On the same count and under the same terms, for `COc1cc(C2C(C(=O)O)=C(CO)Oc3cc4c(cc32)OCO4)cc(OC)c1O` (configuration not stated) the value was over 100 µM; for `O=C1[C@H]2ON(c3ccccc3)C(c3ccccc3Cl)[C@H]2C(=O)N1c1ccc(Cc2ccc(N3C(=O)[C@@H]4ON(c5ccccc5)C(c5ccccc5Cl)[C@@H]4C3=O)cc2)cc1` (some centres not stated), over 100 µM.
The same measure, in the same setting: for `COc1cc(Cn2c3ccccc3c3cc(C)c4c(c32)C=CC(C)(CCC=C(C)C)O4)cc2c1[nH]c1ccccc12` (configuration not stated) the value was over 100 µM.

For a further test, the system named is HT29 colon. The test can be described thus: inhibition of tumour cell growth, NCI panel, 48 h.
For the molecule `Cc1ccc(C(=O)c2nnc(C(=O)c3ccc(C)cc3)nn2)cc1`, the TGI was over 100 µM.
Still for that read-out and setting: the same measure for `COc1cc(C2C(C(=O)O)=C(CO)Oc3cc4c(cc32)OCO4)cc(OC)c1O` (configuration not stated): over 100 µM.
Still for that read-out and setting: the same measure for `O=C1[C@H]2ON(c3ccccc3)C(c3ccccc3Cl)[C@H]2C(=O)N1c1ccc(Cc2ccc(N3C(=O)[C@@H]4ON(c5ccccc5)C(c5ccccc5Cl)[C@@H]4C3=O)cc2)cc1` (some centres not stated): over 100 µM; for `COc1cc(Cn2c3ccccc3c3cc(C)c4c(c32)C=CC(C)(CCC=C(C)C)O4)cc2c1[nH]c1ccccc12` (configuration not stated): over 100 µM.

A further test has as its system IGROV1 ovarian. The test can be described thus: inhibition of tumour cell growth, NCI panel, 48 h.
`Cc1ccc(C(=O)c2nnc(C(=O)c3ccc(C)cc3)nn2)cc1`: the TGI is over 100 µM.
Same read-out and setting: for `COc1cc(C2C(C(=O)O)=C(CO)Oc3cc4c(cc32)OCO4)cc(OC)c1O` (configuration not stated) the value was over 100 µM; for `O=C1[C@H]2ON(c3ccccc3)C(c3ccccc3Cl)[C@H]2C(=O)N1c1ccc(Cc2ccc(N3C(=O)[C@@H]4ON(c5ccccc5)C(c5ccccc5Cl)[C@@H]4C3=O)cc2)cc1` (some centres not stated), over 100 µM.
The same measure, in the same setting: for `COc1cc(Cn2c3ccccc3c3cc(C)c4c(c32)C=CC(C)(CCC=C(C)C)O4)cc2c1[nH]c1ccccc12` (configuration not stated) the value was over 100 µM.

Another test deals with K-562 leukemia. The test can be described thus: inhibition of tumour cell growth, NCI panel, 48 h.
For the molecule `Cc1ccc(C(=O)c2nnc(C(=O)c3ccc(C)cc3)nn2)cc1`, the TGI was found to be 55.8 µM.
Still for that read-out and setting: for `COc1cc(C2C(C(=O)O)=C(CO)Oc3cc4c(cc32)OCO4)cc(OC)c1O` (configuration not stated) the value was over 100 µM; for `O=C1[C@H]2ON(c3ccccc3)C(c3ccccc3Cl)[C@H]2C(=O)N1c1ccc(Cc2ccc(N3C(=O)[C@@H]4ON(c5ccccc5)C(c5ccccc5Cl)[C@@H]4C3=O)cc2)cc1` (some centres not stated), over 100 µM; for `COc1cc(Cn2c3ccccc3c3cc(C)c4c(c32)C=CC(C)(CCC=C(C)C)O4)cc2c1[nH]c1ccccc12` (configuration not stated), over 100 µM.

The test system of another test is KM12 colon. The test can be described thus: inhibition of tumour cell growth, NCI panel, 48 h.
Molecule `Cc1ccc(C(=O)c2nnc(C(=O)c3ccc(C)cc3)nn2)cc1` came in with a TGI of over 100 µM.
As to `O=C1[C@H]2ON(c3ccccc3)C(c3ccccc3Cl)[C@H]2C(=O)N1c1ccc(Cc2ccc(N3C(=O)[C@@H]4ON(c5ccccc5)C(c5ccccc5Cl)[C@@H]4C3=O)cc2)cc1` (some centres not stated), the TGI is over 100 µM.
`COc1cc(Cn2c3ccccc3c3cc(C)c4c(c32)C=CC(C)(CCC=C(C)C)O4)cc2c1[nH]c1ccccc12` (configuration not stated) yielded a TGI of over 100 µM.

In a further test the test system is KM20L2 colon. The test can be described thus: inhibition of tumour cell growth, NCI panel, 48 h.
On to `Cc1ccc(C(=O)c2nnc(C(=O)c3ccc(C)cc3)nn2)cc1`, for which the TGI was over 100 µM.
On the same count and under the same terms, for `COc1cc(C2C(C(=O)O)=C(CO)Oc3cc4c(cc32)OCO4)cc(OC)c1O` (configuration not stated) the value was over 100 µM.
On the same count and under the same terms, for `O=C1[C@H]2ON(c3ccccc3)C(c3ccccc3Cl)[C@H]2C(=O)N1c1ccc(Cc2ccc(N3C(=O)[C@@H]4ON(c5ccccc5)C(c5ccccc5Cl)[C@@H]4C3=O)cc2)cc1` (some centres not stated) the value was over 100 µM; for `COc1cc(Cn2c3ccccc3c3cc(C)c4c(c32)C=CC(C)(CCC=C(C)C)O4)cc2c1[nH]c1ccccc12` (configuration not stated), over 100 µM.

For a further test, the system named is LOX IMVI melanoma. The test can be described thus: inhibition of tumour cell growth, NCI panel, 48 h.
Molecule `Cc1ccc(C(=O)c2nnc(C(=O)c3ccc(C)cc3)nn2)cc1` gave a TGI of 35.6 µM.
On the same count and under the same terms, the same measure for `COc1cc(C2C(C(=O)O)=C(CO)Oc3cc4c(cc32)OCO4)cc(OC)c1O` (configuration not stated): over 100 µM; for `O=C1[C@H]2ON(c3ccccc3)C(c3ccccc3Cl)[C@H]2C(=O)N1c1ccc(Cc2ccc(N3C(=O)[C@@H]4ON(c5ccccc5)C(c5ccccc5Cl)[C@@H]4C3=O)cc2)cc1` (some centres not stated): over 100 µM; for `COc1cc(Cn2c3ccccc3c3cc(C)c4c(c32)C=CC(C)(CCC=C(C)C)O4)cc2c1[nH]c1ccccc12` (configuration not stated): over 100 µM.

In a further test the test system is LXFL 529 NSCLC. The test can be described thus: inhibition of tumour cell growth, NCI panel, 48 h.
Consider `Cc1ccc(C(=O)c2nnc(C(=O)c3ccc(C)cc3)nn2)cc1`, for which the TGI is over 100 µM.
Same read-out and setting: for `O=C1[C@H]2ON(c3ccccc3)C(c3ccccc3Cl)[C@H]2C(=O)N1c1ccc(Cc2ccc(N3C(=O)[C@@H]4ON(c5ccccc5)C(c5ccccc5Cl)[C@@H]4C3=O)cc2)cc1` (some centres not stated) the value was over 100 µM.
Still for that read-out and setting: the same measure for `COc1cc(Cn2c3ccccc3c3cc(C)c4c(c32)C=CC(C)(CCC=C(C)C)O4)cc2c1[nH]c1ccccc12` (configuration not stated): over 100 µM.

The next test relates to M14 melanoma. The test can be described thus: inhibition of tumour cell growth, NCI panel, 48 h.
Turning to `Cc1ccc(C(=O)c2nnc(C(=O)c3ccc(C)cc3)nn2)cc1`, the TGI was determined as 56.3 µM.
Same read-out and setting: for `COc1cc(C2C(C(=O)O)=C(CO)Oc3cc4c(cc32)OCO4)cc(OC)c1O` (configuration not stated) the value was over 100 µM.
Still for that read-out and setting: the same measure for `O=C1[C@H]2ON(c3ccccc3)C(c3ccccc3Cl)[C@H]2C(=O)N1c1ccc(Cc2ccc(N3C(=O)[C@@H]4ON(c5ccccc5)C(c5ccccc5Cl)[C@@H]4C3=O)cc2)cc1` (some centres not stated): 73.5 µM; for `COc1cc(Cn2c3ccccc3c3cc(C)c4c(c32)C=CC(C)(CCC=C(C)C)O4)cc2c1[nH]c1ccccc12` (configuration not stated): over 100 µM.

For another test, the system named is M19-MEL melanoma. The test can be described thus: inhibition of tumour cell growth, NCI panel, 48 h.
`Cc1ccc(C(=O)c2nnc(C(=O)c3ccc(C)cc3)nn2)cc1` displayed a TGI of 61.5 µM.
Still for that read-out and setting: the same measure for `O=C1[C@H]2ON(c3ccccc3)C(c3ccccc3Cl)[C@H]2C(=O)N1c1ccc(Cc2ccc(N3C(=O)[C@@H]4ON(c5ccccc5)C(c5ccccc5Cl)[C@@H]4C3=O)cc2)cc1` (some centres not stated): over 100 µM; for `COc1cc(Cn2c3ccccc3c3cc(C)c4c(c32)C=CC(C)(CCC=C(C)C)O4)cc2c1[nH]c1ccccc12` (configuration not stated): over 100 µM.

The subject of another test is MALME-3M melanoma. The test can be described thus: inhibition of tumour cell growth, NCI panel, 48 h.
The molecule `Cc1ccc(C(=O)c2nnc(C(=O)c3ccc(C)cc3)nn2)cc1` registered a TGI of over 100 µM.
Molecule `COc1cc(C2C(C(=O)O)=C(CO)Oc3cc4c(cc32)OCO4)cc(OC)c1O` (configuration not stated) displayed a TGI of over 100 µM.
Molecule `O=C1[C@H]2ON(c3ccccc3)C(c3ccccc3Cl)[C@H]2C(=O)N1c1ccc(Cc2ccc(N3C(=O)[C@@H]4ON(c5ccccc5)C(c5ccccc5Cl)[C@@H]4C3=O)cc2)cc1` (some centres not stated) returned a TGI of over 100 µM.
The same measure, in the same setting: for `COc1cc(Cn2c3ccccc3c3cc(C)c4c(c32)C=CC(C)(CCC=C(C)C)O4)cc2c1[nH]c1ccccc12` (configuration not stated) the value was over 100 µM.
